Assay results: patent US6846804B2 (priority 2000, dated 2005)

Legend:
[1] = system: B. cereus T spores; format: cell-based, Bacillus cereus T
[2] = system: spores of Bacillus; conditions: cited from earlier work

Sublancin
halo (inhibition of spore germination/outgrowth) [1]: clear halo | inhibition of outgrowth of spores [2]: highly active
